Each block holds one compound with its values, some of them ahead of it.
How the values were obtained:
SCL-1 cells [1] = experiment: Oxidized (carbonylated) proteins, Oxyblot, tumor cells; type: cell-based, human; settings: 250 μM H2O2 for 1 h
Procedure: Dermal fibroblasts or tumor cells were grown to subconfluence on tissue culture dishes. After removal of serum-containing medium, HDF were cultured in CM^HDF and either mock-treated or pretreated for 40 h with 150 μM CeO2 nanoparticles prior to addition of 10 ng rTGFβ1/ml for additional 8 h. Tumor cells were mock-treated or treated with 150 μM CNP for 16 h. As positive control, the cells were treated with 250 μM H2O2 for 1 h. Thereafter, cells were lysed and carbonyl groups of oxidized proteins were detected with the OxyBlot™ Protein Oxidation Detection Kit, following the manufacturer's protocol. Briefly, the protein concentration was determined by using a modified Lowry method (Bio-Rad DC). The protein amounts of the samples were aligned. 5 μg of this cell lysate was incubated with 2,4-dinitrophenyl (DNP) hydrazine to form the DNP hydrazone derivatives. Labeled proteins were separated by SDS-PAGE and immunostained using rabbit anti-DNP antiserum (1:500) and goat anti-rabbit IgG conjugated to horseradish peroxidase (1:2000). Blots were developed by enhanced chemiluminescence.

SCL-1 cells [2] = experiment: Intracellular ROS, DCF fluorescence, tumor cells; type: cell-based, human; settings: 250 μM H2O2, technical control; data not shown
Procedure: Generation of ROS was determined using 2′,7′-Dichlorodihydrofluorescein diacetate (H2DCF-DA), a dye that diffuses across the lipid membranes into cells and is subsequently oxidized by intracellular ROS forming the highly fluorescent DCF. Subconfluent HDF and SCL-1 tumor cells were exposed to 50 μM or 150 μM CNP in serum-free DMEM in 24-well plates. Untreated subconfluent SCL-1 cells were used as negative controls. Medium was substituted after 24 h by 100 μM H2DCF-DA containing Hanks Balanced Salt Solution (HESS). DCF fluorescence was detected at an excitation wavelength of 485 nm and emission wavelength of 520 nm in 15 minutes intervals in a FLUOstar OPTIMA plate reader (BMG Labtech, Offenburg, Germany). Mean fluorescence intensities and standard error of mean were determined for each reading point by using the statistical software Prism 3.0 (GraphPad, San Diego, Calif., USA).

αSMA = experiment: TGFβ1-mediated αSMA protein expression in human dermal fibroblasts, western blot; type: cell-based; settings: HDF; for TGFβ1-triggered upregulation of αSMA protein levels: NAC 5.0 mM 4 h or Na2SeO3 0.5 μM 24 h pretreatment, rTGFβ1 5 ng/ml, 48 h after growth factor
Procedure: Human dermal fibroblasts (HDF) were established by outgrowth from foreskin biopsies of healthy human donors with an age of 3-6 years. Cells were used in passages 2-12, corresponding to cumulative population doubling levels of 3-27 [15]. Dermal fibroblasts and the squamous carcinoma cell line SCL-1, originally derived from the face of a person (generously provided by Prof. Dr Norbert Fusenig, DKFZ Heidelberg, Germany), were cultured as described. Myofibroblasts (MF) were generated by treatment of HDFs with different concentrations of recombinant TGFβ1 (5 ng/ml) for 48 h in HDF conditioned medium (CMHDF).
SDS-PAGE was performed according to the standard protocols published elsewhere with minor modifications. Briefly, cells were lysed after incubation with rTGFβ1 in 1% SDS with 1:1000 protease inhibitor cocktail (Sigma; Taufkirchen, Germany). After sonication, the protein concentration was determined by using a modified Lowry method (Bio-Rad DC). 2×SDS-PAGE sample buffer (1.5 M Tris-HCl pH 6.8, 6 ml 20% SDS, 30 ml glycerol, 15 ml β-mercaptoethanol and 1.8 mg bromophenol blue was added, and after heating, the samples (10 μg total protein/lane) were applied to 10% (w/v) SDS-polyacrylamide gels. After electroblotting, immunodetection was carried out (1:1000 dilution of primary antibodies (mouse monoclonal anti-SMA and tubulin), 1:20000 dilution of anti-mouse antibody conjugated to HRP). Antigen-antibody complexes were visualized by an enhanced chemiluminescence system. Alpha-tubulin was used as internal control for equal loading.

HIF-1 [3] = experiment: HIF-1 protein expression, western blot, fibroblasts; type: cell-based, human; settings: HDF; 100 μM cobalt chloride; 4 h
HIF-1 [4] = experiment: HIF-1 protein expression, western blot, tumor cells; type: cell-based, human; settings: SCL-1; 100 μM cobalt chloride; 4 h
αSMA mRNA = experiment: αSMA mRNA, quantitative real-time RT-PCR in human dermal fibroblasts; type: cell-based; settings: HDF; 24 h after treatment; normalised to HPRT1
Procedure: Total RNA was isolated and transcribed into cDNA as described. Expression of mRNA was analyzed by real-time RT-PCR using a LightCycler system (Roche; Mannheim, Germany) as described. Real-time RT-PCR was performed with 40 ng cDNA in glass capillaries containing LightCycler FastStart DNA Master SYBR Green I Reaction Mix (Roche), 2 mM MgCl2 and 1 μM of primers. Quantitation of the PCR amplicons was performed using the LightCycler Software. Hypoxanthine phosphoribosyltransferase (HPRT1) was used as internal normalization control.

[5] = mouse, in vivo, iv, 0.5 mg/kg
Procedure: Eight-week-old, CD-1 mice were divided into two groups. Controls were given weekly doses of 100 μl sterile PBS only by intravenous (IV) administration. The nanoceria group received five doses (one dose a week) of 0.5 mg/kg of nanoceria suspended in 100 μl of sterile saline (IV). Both groups were sacrified on the sixth week. Skin tissue from the back of each animal was excised and hair removed. The tissue was patted dry, weighed and placed in 70% nitric acid overnight to start the digestion process. Samples were then microwave digested. The temperature was ramped to 200° C. over 20 min and held there for another 20 min. Samples were then boiled down to less than 1 ml each and reconstituted in water to an exact volume of 10 ml. Cerium levels were assessed using inductively coupled plasma mass spectroscopy (ICP-MS).

Compound: OO [H2O2, Hydrogen peroxide]
- oxidized proteins, positive control (SCL-1 cells [1]): increase in oxidized proteins
- intracellular ROS level (SCL-1 cells [2]): further increased

Compound: CC(=O)N[C@@H](CS)C(=O)O [NAC, N-acetyl-L-cysteine]
- TGFβ1-triggered upregulation of αSMA protein levels (αSMA): completely prevented

Compound: [Cl][Co][Cl] [cobalt chloride]
- HIF-1 protein expression (HIF-1 [3]): not affected
- HIF-1 protein levels compared to mock-treated cells (HIF-1 [4]): significant increase

Compound: O=[Se]([O-])[O-].[Na+].[Na+] [selenite, sodium selenite]
- TGFβ1-triggered upregulation of αSMA protein levels (αSMA): significantly lowered

Compound: TGFβ1: Recombinant human TGFβ1 from R&D Systems, stimulus for myofibroblast formation
- αSMA protein amount compared with mock-treated control cells (αSMA; rTGFβ1 5 ng/ml for 8 to 48 h, starting at 16 h post treatment): significant time-dependent increase
- increase in αSMA steady-state mRNA levels compared to mock-treated controls (αSMA mRNA): 10 fold

- increase in the amount of CeO2 per gram skin tissue vs mock-treated mice [5]: up to 8 fold
- cell morphology (human dermal fibroblasts): No change in morphology
Compound: cerium oxide nanoparticles [CNP]

— US9585840B1, “Redox active cerium oxide nanoparticles and associated methods” (University of Central Florida Research Foundation, Inc., priority 2009, dated 2017)
